According to ChEMBL document CHEMBL1909046, “DrugMatrix in vitro pharmacology data”:

How the values were obtained:
[1] = target: D(1A) dopamine receptor (Homo sapiens, UniProt P21728); test: DRUGMATRIX: Dopamine D1 radioligand binding (ligand: [3H] SCH-23390); type: cell membranes, CHO, Membrane; details: cho; Not Active = under 50% inhibition at 10 µM
[2] = target: C-C chemokine receptor type 2 (Homo sapiens, UniProt P41597); type: cell membranes, CHO-K1, Membrane; details: cho-k1; also: in other assays of this panel Not Active means under 50% inhibition at 10 µM
[3] = target: Beta-2 adrenergic receptor (Homo sapiens, UniProt P07550); test: DRUGMATRIX: Adrenergic beta2 radioligand binding (ligand: [3H] CGP-12177); type: cell membranes, CHO, Membrane; details: cho; Not Active = under 50% inhibition at 10 µM
[4] = target: T1, Leukotriene C4 synthase (Cavia porcellus, UniProt A6XA80); type: tissue-based, Lung;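 also: enzyme inhibition assay of leukotriene C4 synthase, using LTA4 as the substrate; in other assays of this panel Not Active means under 50% inhibition at 10 µM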
T1 sequence (A6XA80 whole entry): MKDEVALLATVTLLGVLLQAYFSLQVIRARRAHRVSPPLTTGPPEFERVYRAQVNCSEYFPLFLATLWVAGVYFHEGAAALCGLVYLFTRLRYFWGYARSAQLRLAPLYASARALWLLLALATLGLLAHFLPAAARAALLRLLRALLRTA

[5] = target: Acetylcholinesterase (Homo sapiens, UniProt P22303); test: DRUGMATRIX: Acetylcholinesterase enzyme inhibition (substrate: acetylthiocholine); type: cell-based, HEK293; details: hek293; Not Active = under 50% inhibition at 10 µM

Measured: IC50

Beta-2 adrenergic receptor, sequence (P07550 whole entry): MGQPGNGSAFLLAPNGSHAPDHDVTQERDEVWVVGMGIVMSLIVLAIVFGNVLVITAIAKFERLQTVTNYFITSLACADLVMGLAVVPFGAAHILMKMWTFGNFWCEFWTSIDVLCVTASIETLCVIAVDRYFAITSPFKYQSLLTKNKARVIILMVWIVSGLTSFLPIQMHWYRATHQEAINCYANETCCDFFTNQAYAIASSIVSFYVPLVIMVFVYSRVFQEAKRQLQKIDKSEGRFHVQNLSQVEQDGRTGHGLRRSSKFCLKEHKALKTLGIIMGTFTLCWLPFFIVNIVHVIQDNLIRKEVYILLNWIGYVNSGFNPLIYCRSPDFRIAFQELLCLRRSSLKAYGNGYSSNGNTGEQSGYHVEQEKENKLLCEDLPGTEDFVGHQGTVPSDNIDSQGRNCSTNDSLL
Acetylcholinesterase, sequence (P22303 whole entry): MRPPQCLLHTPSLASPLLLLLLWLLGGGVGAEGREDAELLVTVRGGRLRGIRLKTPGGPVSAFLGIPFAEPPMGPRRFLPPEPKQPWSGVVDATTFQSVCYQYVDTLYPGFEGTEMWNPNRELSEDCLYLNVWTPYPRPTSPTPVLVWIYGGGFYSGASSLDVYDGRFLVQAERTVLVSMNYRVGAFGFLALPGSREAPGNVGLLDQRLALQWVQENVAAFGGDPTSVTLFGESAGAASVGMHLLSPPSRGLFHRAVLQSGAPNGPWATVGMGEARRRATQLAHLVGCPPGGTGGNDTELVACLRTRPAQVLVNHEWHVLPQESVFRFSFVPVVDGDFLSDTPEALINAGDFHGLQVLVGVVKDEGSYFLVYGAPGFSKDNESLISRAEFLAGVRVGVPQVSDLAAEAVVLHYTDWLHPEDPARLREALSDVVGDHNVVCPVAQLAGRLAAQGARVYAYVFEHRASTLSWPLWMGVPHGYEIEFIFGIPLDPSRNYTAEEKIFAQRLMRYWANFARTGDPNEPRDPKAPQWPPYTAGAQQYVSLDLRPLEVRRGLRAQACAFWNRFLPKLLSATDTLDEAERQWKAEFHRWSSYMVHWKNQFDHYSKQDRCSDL
C-C chemokine receptor type 2, sequence (P41597 whole entry): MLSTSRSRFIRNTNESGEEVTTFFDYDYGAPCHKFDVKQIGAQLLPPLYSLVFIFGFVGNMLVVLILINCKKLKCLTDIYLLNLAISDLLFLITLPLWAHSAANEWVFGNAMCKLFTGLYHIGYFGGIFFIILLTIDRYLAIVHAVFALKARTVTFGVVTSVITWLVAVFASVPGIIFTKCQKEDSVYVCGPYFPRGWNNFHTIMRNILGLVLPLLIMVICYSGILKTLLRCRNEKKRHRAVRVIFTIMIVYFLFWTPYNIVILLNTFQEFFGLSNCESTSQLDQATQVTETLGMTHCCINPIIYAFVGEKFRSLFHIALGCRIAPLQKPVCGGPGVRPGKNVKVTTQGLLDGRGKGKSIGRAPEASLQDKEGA
D(1A) dopamine receptor, sequence (P21728 whole entry): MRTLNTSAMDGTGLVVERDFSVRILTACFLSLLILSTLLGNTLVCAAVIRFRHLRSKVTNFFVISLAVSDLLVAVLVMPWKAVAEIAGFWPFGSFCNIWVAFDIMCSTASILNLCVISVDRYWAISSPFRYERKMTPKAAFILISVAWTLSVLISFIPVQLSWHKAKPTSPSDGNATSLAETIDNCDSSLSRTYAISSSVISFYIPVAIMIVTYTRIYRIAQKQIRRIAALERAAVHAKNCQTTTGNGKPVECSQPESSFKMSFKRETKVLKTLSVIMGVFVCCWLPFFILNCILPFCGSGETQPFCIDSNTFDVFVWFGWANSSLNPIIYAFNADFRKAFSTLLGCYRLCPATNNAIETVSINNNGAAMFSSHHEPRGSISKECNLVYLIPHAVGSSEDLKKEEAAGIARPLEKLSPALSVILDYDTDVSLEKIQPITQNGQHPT

CCC(=O)O[C@H]1[C@H](O[C@@H]2[C@@H](C)[C@H](O[C@H]3C[C@@](C)(OC)[C@@H](O)[C@H](C)O3)[C@@H](C)C(=O)O[C@H](CC)[C@@](C)(O)[C@H](O)[C@@H](C)C(=O)[C@H](C)C[C@@]2(C)O)O[C@H](C)C[C@@H]1N(C)C [ERYTHROMYCIN PROPIONATE]
Not Active: all assays above

C=C(CC)C(=O)c1ccc(OCC(=O)O)c(Cl)c1Cl [ETHACRYNIC ACID]
Not Active: all assays above

C#C[C@]1(O)CC[C@H]2[C@@H]3CCc4cc(O)ccc4[C@H]3CC[C@@]21C [ETHINYL ESTRADIOL]
Not Active: all assays above

OCCO [ETHYLENE GLYCOL]
Not Active: all assays above

CC(=O)OCC(CCn1cnc2cnc(N)nc21)COC(C)=O [FAMCICLOVIR]
Not Active: all assays above

O=C(O)Cc1ccc(-c2ccccc2)cc1 [FELBINAC]
Not Active: all assays above

CCOC(=O)C1=C(C)NC(C)=C(C(=O)OC)C1c1cccc(Cl)c1Cl (stereo not given) [FELODIPINE]
Not Active: all assays above

CC(C(=O)O)c1ccc(-c2ccccc2)c(F)c1 (stereo not given) [FLURBIPROFEN]
Not Active: all assays above

Cc1cn[nH]c1 [FOMEPIZOLE]
Not Active: all assays above

NC[C@@H]1O[C@H](O[C@H]2[C@@H](O)[C@H](O[C@@H]3[C@@H](O)[C@H](N)C[C@H](N)[C@H]3O[C@H]3O[C@H](CN)[C@@H](O)[C@H](O)[C@H]3N)O[C@@H]2CO)[C@H](N)[C@@H](O)[C@@H]1O [FRAMYCETIN]
Not Active: all assays above

C[C@H]([C@](O)(Cn1cncn1)c1ccc(F)cc1F)S(C)(=O)=O [GENACONAZOLE]
Not Active: all assays above

Cc1cnc(C(=O)NCCc2ccc(S(=O)(=O)NC(=O)NC3CCCCC3)cc2)cn1 [GLIPIZIDE]
Not Active: all assays above

Cc1c(F)c(N2CCNC(C)C2)cc2c1c(=O)c(C(=O)O)cn2C1CC1 (stereo not given) [GREPAFLOXACIN]
Not Active: all assays above

COc1ccccc1OCC(O)CO (stereo not given) [GUAIFENESIN]
Not Active: all assays above

N=C(N)N/N=C/c1c(Cl)cccc1Cl [GUANABENZ]
Not Active: all assays above

C[C@]12CCC(=O)C=C1CC[C@@H]1[C@@H]2[C@@H](O)C[C@@]2(C)[C@H]1CC[C@]2(O)C(=O)CO [HYDROCORTISONE]
Not Active: all assays above

C/C=C\c1ccc(O)c(OC)c1 [ISOEUGENOL]
Not Active: all assays above

NC[C@H]1O[C@H](O[C@H]2[C@H](O)[C@@H](O[C@H]3O[C@H](CO)[C@@H](O)[C@H](N)[C@H]3O)[C@H](N)C[C@@H]2N)[C@H](O)[C@@H](O)[C@@H]1O [KANAMYCIN]
Not Active: all assays above

CC[C@H](C)C(=O)O[C@H]1C[C@@H](C)C=C2C=C[C@H](C)[C@H](CC[C@@H]3C[C@@H](O)CC(=O)O3)[C@H]21 [LOVASTATIN]
Not Active: all assays above
